Values after ≈ are worked out from the molar mass of the structure shown.
What was measured:
[1] = tested on: MSSA; assay: Broth microdilution MIC, MSSA; type: cell-based, Staphylococcus aureus; conditions: Mueller-Hinton medium, 37° C., 16 hours
Procedure: (§1) Each member of the pilot library was tested for antibiotic activity. Activity was quantified by measuring the MIC of each derivative against a variety of representative pathogenic bacterial strains using the microdilution protocol (CSLI, Performance Standards for Antimicrobial Susceptibility Testing; Nineteenth Informational Supplement, Clinical and Laboratory Standards Institute, Wayne, Pa., 2009). A. baumannii, E. coli, MSSA, and MRSA were used for initial evaluation. […] Compounds 4d, 4n, and 4o were determined to be the lead compounds.
(§2) Broth Microdilution Method for MIC Determination.
(§3) Overnight cultures of bacterial strain were subcultured to 5×10^5 CFU/mL in Mueller-Hinton medium (Fluka #70192). The resulting bacterial suspension was aliquoted (1.0 mL) into culture tubes. Samples were prepared from these culture tubes containing either 256 μg/mL of specified antibiotic or no test compound as a control. Samples were then aliquoted (200 μL) into the first row of wells of a 96-well microtiter plate in which subsequent wells were prefilled with 100 μL of Mueller-Hinton medium based 5×10^5 CFU/mL bacterial subculture. Using the multichannel pipettor set at 100 μL, row one wells were mixed 8-10 times. Then, 100 μL were withdrawn and transferred to row two. Row two wells were mixed 8-10 times followed by a 100 μL transfer from row two to row three. This procedure was used to serial dilute the rest of the rows of the microtier plate. The microtiter plate sample was then covered with a microtiter plate lid and then placed in a covered plastic container. The chamber was incubated under stationary conditions at 37° C.

[2] = tested on: E. coli; assay: Broth microdilution MIC, E. coli; type: cell-based; conditions: Mueller-Hinton medium, 37° C., 16 hours
Procedure: as §1, §2, §3

[3] = tested on: A. baumannii; assay: Broth microdilution MIC, A. baumannii; type: cell-based; conditions: Mueller-Hinton medium, 37° C., 16 hours
Procedure: as §1, §2, §3

[4] = tested on: MRSA ATCC BAA 44; assay: Broth microdilution MIC, MRSA ATCC BAA 44; type: cell-based, Staphylococcus aureus; conditions: for MIC MRSA: Table 2 pilot library screen; for MIC MRSA BAA 44: Table 3 nine-strain screen
Procedure: as §1
(§4) Once it was noted that compounds were active against MSSA and MRSA, the library was tested against various MRSA strains isolated from a nosocomial environment. MRSA has emerged as a major cause of illness and death in hospitals. These illnesses include lower respiratory tract infections, surgical site infections, cardiovascular infections and pneumonia. Nine different MRSA strains were obtained, and lead compounds 4d and 4o were screened for activity.
as §2, §3

[5] = tested on: MRSA ATCC BAA 1753; assay: Broth microdilution MIC, MRSA ATCC BAA 1753; type: cell-based, Staphylococcus aureus
Procedure: as §4, §2
as §3, with “The microtiter plate sample was then covered with a microtiter plate lid and then placed in a covered plastic container. The chamber was incubated under stationary conditions at 37° C.” left out

[6] = tested on: MRSA ATCC 33591; assay: Broth microdilution MIC, MRSA ATCC 33591; type: cell-based, Staphylococcus aureus
Procedure: as §4, §2
as §3, with “The microtiter plate sample was then covered with a microtiter plate lid and then placed in a covered plastic container. The chamber was incubated under stationary conditions at 37° C.” left out

[7] = tested on: MRSA ATCC BAA 1770; assay: Broth microdilution MIC, MRSA ATCC BAA 1770; type: cell-based, Staphylococcus aureus
Procedure: as §4, §2
as §3, with “The microtiter plate sample was then covered with a microtiter plate lid and then placed in a covered plastic container. The chamber was incubated under stationary conditions at 37° C.” left out

[8] = tested on: MRSA ATCC 700789; assay: Broth microdilution MIC, MRSA ATCC 700789; type: cell-based, Staphylococcus aureus
Procedure: as §4, §2
as §3, with “The microtiter plate sample was then covered with a microtiter plate lid and then placed in a covered plastic container. The chamber was incubated under stationary conditions at 37° C.” left out

[9] = tested on: MRSA ATCC BAA 1685; assay: Broth microdilution MIC, MRSA ATCC BAA 1685; type: cell-based, Staphylococcus aureus
Procedure: as §4, §2
as §3, with “The microtiter plate sample was then covered with a microtiter plate lid and then placed in a covered plastic container. The chamber was incubated under stationary conditions at 37° C.” left out

[10] = tested on: MRSA ATCC 43300; assay: Broth microdilution MIC, MRSA ATCC 43300; type: cell-based, Staphylococcus aureus
Procedure: as §4, §2
as §3, with “The microtiter plate sample was then covered with a microtiter plate lid and then placed in a covered plastic container. The chamber was incubated under stationary conditions at 37° C.” left out

[11] = tested on: MRSA ATCC BAA 1556; assay: Broth microdilution MIC, MRSA ATCC BAA 1556; type: cell-based, Staphylococcus aureus
Procedure: as §4, §2
as §3, with “The microtiter plate sample was then covered with a microtiter plate lid and then placed in a covered plastic container. The chamber was incubated under stationary conditions at 37° C.” left out

[12] = tested on: MRSA ATCC BAA 811; assay: Broth microdilution MIC, MRSA ATCC BAA 811; type: cell-based, Staphylococcus aureus
Procedure: as §4, §2
as §3, with “The microtiter plate sample was then covered with a microtiter plate lid and then placed in a covered plastic container. The chamber was incubated under stationary conditions at 37° C.” left out

Row | MIC MSSA [1] | MIC E. coli [2] | MIC A. baumannii [3] | MIC MRSA [4] | MIC MRSA BAA 1753 [5] | MIC MRSA 33591 [6] | MIC MRSA BAA 1770 [7] | MIC MRSA 700789 [8] | MIC MRSA BAA 1685 [9] | MIC MRSA 43300 [10] | MIC MRSA BAA 1556 [11] | MIC MRSA BAA 811 [12] | MIC MRSA BAA 44 [4] | SMILES
1 | 256 µg/mL (≈ 1030 µM) | 256 µg/mL (≈ 1030 µM) | 128 µg/mL (≈ 513 µM) | 256 µg/mL (≈ 1030 µM) | – | – | – | – | – | – | – | – | – | Cc1nc(N)n(-c2ccccc2)c1-c1ccccc1 [Compound 4a]
2 | 16 µg/mL (≈ 50.1 µM) | >256 µg/mL | >256 µg/mL | 8 µg/mL (≈ 25 µM) | – | – | – | – | – | – | – | – | – | CCCCCCc1nc(N)n(-c2ccccc2)c1-c1ccccc1 [Compound 4b]
3 | >256 µg/mL | >256 µg/mL | >256 µg/mL | >256 µg/mL | – | – | – | – | – | – | – | – | – | Nc1nc(-c2ccccc2)c(-c2ccccc2)n1-c1ccccc1 [Compound 4c]
4 | 4 µg/mL (≈ 11.5 µM) | >256 µg/mL | 64 µg/mL (≈ 184 µM) | 2 µg/mL (≈ 5.76 µM) | 4 µg/mL (≈ 11.5 µM) | 8 µg/mL (≈ 23 µM) | 8 µg/mL (≈ 23 µM) | 4 µg/mL (≈ 11.5 µM) | 4 µg/mL (≈ 11.5 µM) | 2 µg/mL (≈ 5.76 µM) | 4 µg/mL (≈ 11.5 µM) | 2 µg/mL (≈ 5.76 µM) | 2 µg/mL (≈ 5.76 µM) | CCCCCCCc1ccc(-n2c(N)nc(C)c2-c2ccccc2)cc1 [Compound 4d]
5 | >256 µg/mL | >256 µg/mL | >256 µg/mL | 128 µg/mL (≈ 306 µM) | – | – | – | – | – | – | – | – | – | CCCCCCCc1ccc(-n2c(N)nc(CCCCCC)c2-c2ccccc2)cc1 [Compound 4e]
6 | >256 µg/mL | >256 µg/mL | >256 µg/mL | >256 µg/mL | – | – | – | – | – | – | – | – | – | CCCCCCCc1ccc(-n2c(N)nc(-c3ccccc3)c2-c2ccccc2)cc1 [Compound 4f]
7 | 32 µg/mL (≈ 82.1 µM) | >256 µg/mL | >256 µg/mL | 4 µg/mL (≈ 10.3 µM) | – | – | – | – | – | – | – | – | – | CCCCCCCCCCc1ccc(-n2c(N)nc(C)c2-c2ccccc2)cc1 [Compound 4g]
8 | >256 µg/mL | >256 µg/mL | >256 µg/mL | >256 µg/mL | – | – | – | – | – | – | – | – | – | CCCCCCCCCCc1ccc(-n2c(N)nc(CCCCCC)c2-c2ccccc2)cc1 [Compound 4h]
9 | >256 µg/mL | >256 µg/mL | >256 µg/mL | >256 µg/mL | – | – | – | – | – | – | – | – | – | CCCCCCCCCCc1ccc(-n2c(N)nc(-c3ccccc3)c2-c2ccccc2)cc1 [Compound 4i]
10 | 4 µg/mL (≈ 10.1 µM) | >256 µg/mL | >256 µg/mL | 4 µg/mL (≈ 10.1 µM) | – | – | – | – | – | – | – | – | – | CCCCCCc1nc(N)n(-c2ccc(-c3ccccc3)cc2)c1-c1ccccc1 [Compound 4j]
11 | >256 µg/mL | >256 µg/mL | >256 µg/mL | >256 µg/mL | – | – | – | – | – | – | – | – | – | Nc1nc(-c2ccccc2)c(-c2ccccc2)n1-c1ccc(-c2ccccc2)cc1 [Compound 4k]
12 | 8 µg/mL (≈ 24 µM) | >256 µg/mL | >256 µg/mL | 4 µg/mL (≈ 12 µM) | – | – | – | – | – | – | – | – | – | CCCCCCc1nc(N)n(-c2ccccc2)c1-c1ccc(C)cc1 [Compound 4l]
13 | >256 µg/mL | >256 µg/mL | >256 µg/mL | >256 µg/mL | – | – | – | – | – | – | – | – | – | Cc1ccc(-c2c(-c3ccccc3)nc(N)n2-c2ccccc2)cc1 [Compound 4m]
14 | 32 µg/mL (≈ 110 µM) | 64 µg/mL (≈ 220 µM) | 64 µg/mL (≈ 220 µM) | 32 µg/mL (≈ 110 µM) | – | – | – | – | – | – | – | – | – | CCCc1ccc(-n2c(N)nc(C)c2-c2ccccc2)cc1 [Compound 4n]
15 | 8 µg/mL (≈ 25 µM) | >256 µg/mL | 16 µg/mL (≈ 50.1 µM) | 4 µg/mL (≈ 12.5 µM) | 8 µg/mL (≈ 25 µM) | 8 µg/mL (≈ 25 µM) | 8 µg/mL (≈ 25 µM) | 8 µg/mL (≈ 25 µM) | 8 µg/mL (≈ 25 µM) | 8 µg/mL (≈ 25 µM) | 8 µg/mL (≈ 25 µM) | 8 µg/mL (≈ 25 µM) | 4 µg/mL (≈ 12.5 µM) | CCCCCc1ccc(-n2c(N)nc(C)c2-c2ccccc2)cc1 [Compound 4o]
